# Measurements from ChEMBL document CHEMBL3886455, “Aminoindane derivatives, pharmaceutical compositions containing them, and their use in therapy” (2016).
# Target: T1, Sodium- and chloride-dependent glycine transporter 1 (Homo sapiens, UniProt P48067)
# T1 sequence (P48067 whole entry): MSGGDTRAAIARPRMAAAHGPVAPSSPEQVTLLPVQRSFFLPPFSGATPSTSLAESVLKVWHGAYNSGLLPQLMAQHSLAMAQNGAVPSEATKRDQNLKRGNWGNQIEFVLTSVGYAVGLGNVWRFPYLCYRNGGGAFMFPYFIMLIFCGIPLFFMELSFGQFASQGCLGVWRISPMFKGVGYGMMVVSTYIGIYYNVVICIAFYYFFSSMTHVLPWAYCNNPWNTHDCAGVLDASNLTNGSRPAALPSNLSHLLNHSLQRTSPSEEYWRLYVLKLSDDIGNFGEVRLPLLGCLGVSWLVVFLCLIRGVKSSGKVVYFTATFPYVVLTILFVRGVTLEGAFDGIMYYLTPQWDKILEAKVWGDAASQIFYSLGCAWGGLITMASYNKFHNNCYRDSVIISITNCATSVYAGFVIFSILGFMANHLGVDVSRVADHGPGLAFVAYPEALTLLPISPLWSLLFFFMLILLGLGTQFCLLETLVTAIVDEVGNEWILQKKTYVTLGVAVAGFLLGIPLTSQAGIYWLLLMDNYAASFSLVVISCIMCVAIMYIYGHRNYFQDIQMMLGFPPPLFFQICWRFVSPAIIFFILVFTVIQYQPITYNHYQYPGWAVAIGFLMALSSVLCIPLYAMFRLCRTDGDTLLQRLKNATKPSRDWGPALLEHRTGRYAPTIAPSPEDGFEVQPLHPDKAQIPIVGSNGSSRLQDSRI
# Test: Radioligand Binding Assay: Radioligand binding to human GlyT1c transporter-expressing membranes was determined as described in Mezler et al., Molecular Pharmacology 74:1705-1715, 2008.
smiles,measurement,value
Cn1cnc(S(=O)(=O)NCc2cc3c(cc2F)C[C@@H](N)[C@H]3Cc2ccccc2)c1 (relative stereo),Ki,< 10 nM
